What all share (test): KINOMEscan (ScanMAX) kinase profiling
Common to all, as to type: binding

In test [1] the target is T1, panel of 468 kinases (Homo sapiens, UniProt Q9Y6E0).
T1 construct: purchased KINOMEscan (ScanMAX) service
Conditions: MST3; 1 μM; read-out: % control.

The target of test [2] is T2, panel of 468 kinases (Homo sapiens, UniProt Q8NFD2).
T2 construct: purchased KINOMEscan (ScanMAX) service
T2 sequence (Q8NFD2 1-765): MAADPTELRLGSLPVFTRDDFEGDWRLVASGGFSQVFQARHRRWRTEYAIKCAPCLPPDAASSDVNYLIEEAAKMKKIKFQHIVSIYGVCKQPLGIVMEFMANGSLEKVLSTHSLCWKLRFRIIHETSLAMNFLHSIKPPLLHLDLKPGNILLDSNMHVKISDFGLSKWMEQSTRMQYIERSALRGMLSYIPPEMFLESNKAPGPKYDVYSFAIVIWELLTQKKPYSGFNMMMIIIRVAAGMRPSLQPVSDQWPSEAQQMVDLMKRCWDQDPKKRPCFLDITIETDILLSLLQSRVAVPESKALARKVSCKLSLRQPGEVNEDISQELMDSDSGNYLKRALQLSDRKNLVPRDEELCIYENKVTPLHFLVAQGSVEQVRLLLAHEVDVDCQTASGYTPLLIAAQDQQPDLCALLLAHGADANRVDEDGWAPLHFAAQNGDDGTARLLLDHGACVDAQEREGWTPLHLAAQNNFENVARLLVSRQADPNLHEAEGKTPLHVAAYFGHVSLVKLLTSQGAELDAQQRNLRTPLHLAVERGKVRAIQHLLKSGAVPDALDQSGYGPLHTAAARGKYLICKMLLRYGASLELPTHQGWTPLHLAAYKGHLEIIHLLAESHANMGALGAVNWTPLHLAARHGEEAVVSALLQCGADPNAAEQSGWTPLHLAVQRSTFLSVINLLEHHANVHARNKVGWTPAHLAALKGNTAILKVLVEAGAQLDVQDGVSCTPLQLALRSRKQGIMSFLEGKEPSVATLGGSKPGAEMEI
Conditions: ANKK1; 1 μM; read-out: % control.

Test [3] deals with T3, panel of 468 kinases (Homo sapiens, UniProt Q8NE63).
T3 construct: purchased KINOMEscan (ScanMAX) service
T3 sequence (Q8NE63 1-616): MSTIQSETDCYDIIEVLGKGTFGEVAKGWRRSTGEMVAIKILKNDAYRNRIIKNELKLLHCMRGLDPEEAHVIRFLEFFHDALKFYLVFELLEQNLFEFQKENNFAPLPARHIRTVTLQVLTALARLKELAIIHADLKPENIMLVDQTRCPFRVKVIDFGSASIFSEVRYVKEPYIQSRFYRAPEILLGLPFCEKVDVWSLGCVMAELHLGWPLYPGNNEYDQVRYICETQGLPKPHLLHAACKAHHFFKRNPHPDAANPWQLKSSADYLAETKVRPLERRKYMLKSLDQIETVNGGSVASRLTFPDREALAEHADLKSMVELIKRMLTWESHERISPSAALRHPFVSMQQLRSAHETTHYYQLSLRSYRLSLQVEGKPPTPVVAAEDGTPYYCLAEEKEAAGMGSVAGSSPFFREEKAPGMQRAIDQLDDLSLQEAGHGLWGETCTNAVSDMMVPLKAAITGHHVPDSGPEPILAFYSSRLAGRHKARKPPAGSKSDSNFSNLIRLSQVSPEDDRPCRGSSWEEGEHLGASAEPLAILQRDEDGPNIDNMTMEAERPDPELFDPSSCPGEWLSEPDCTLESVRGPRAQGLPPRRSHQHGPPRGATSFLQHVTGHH
Conditions: HIPK4; 1 μM; read-out: % control.

In test [4] the target is T4, panel of 468 kinases (Homo sapiens, UniProt P41743).
T4 construct: purchased KINOMEscan (ScanMAX) service
T4 sequence (P41743 1-596): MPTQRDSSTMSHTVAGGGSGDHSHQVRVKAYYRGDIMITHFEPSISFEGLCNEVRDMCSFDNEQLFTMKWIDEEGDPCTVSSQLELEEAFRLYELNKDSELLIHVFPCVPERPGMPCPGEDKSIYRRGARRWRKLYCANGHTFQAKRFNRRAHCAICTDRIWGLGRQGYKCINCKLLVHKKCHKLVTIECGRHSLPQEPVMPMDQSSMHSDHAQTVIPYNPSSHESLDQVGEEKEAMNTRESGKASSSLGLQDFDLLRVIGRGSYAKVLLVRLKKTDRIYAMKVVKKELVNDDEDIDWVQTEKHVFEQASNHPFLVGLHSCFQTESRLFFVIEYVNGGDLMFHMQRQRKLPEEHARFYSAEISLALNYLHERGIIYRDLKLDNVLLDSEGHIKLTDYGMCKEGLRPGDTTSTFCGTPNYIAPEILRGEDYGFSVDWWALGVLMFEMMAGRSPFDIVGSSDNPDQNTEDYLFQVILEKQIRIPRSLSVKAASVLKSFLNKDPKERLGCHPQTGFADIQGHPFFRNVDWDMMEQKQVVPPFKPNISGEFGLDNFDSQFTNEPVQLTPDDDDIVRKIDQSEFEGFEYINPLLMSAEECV
The settings on record: PRKCI; 1 μM; read-out: % control.

For test [5], the target named is T5, panel of 468 kinases (Homo sapiens, UniProt Q99755).
T5 construct: purchased KINOMEscan (ScanMAX) service
T5 sequence (Q99755 whole entry): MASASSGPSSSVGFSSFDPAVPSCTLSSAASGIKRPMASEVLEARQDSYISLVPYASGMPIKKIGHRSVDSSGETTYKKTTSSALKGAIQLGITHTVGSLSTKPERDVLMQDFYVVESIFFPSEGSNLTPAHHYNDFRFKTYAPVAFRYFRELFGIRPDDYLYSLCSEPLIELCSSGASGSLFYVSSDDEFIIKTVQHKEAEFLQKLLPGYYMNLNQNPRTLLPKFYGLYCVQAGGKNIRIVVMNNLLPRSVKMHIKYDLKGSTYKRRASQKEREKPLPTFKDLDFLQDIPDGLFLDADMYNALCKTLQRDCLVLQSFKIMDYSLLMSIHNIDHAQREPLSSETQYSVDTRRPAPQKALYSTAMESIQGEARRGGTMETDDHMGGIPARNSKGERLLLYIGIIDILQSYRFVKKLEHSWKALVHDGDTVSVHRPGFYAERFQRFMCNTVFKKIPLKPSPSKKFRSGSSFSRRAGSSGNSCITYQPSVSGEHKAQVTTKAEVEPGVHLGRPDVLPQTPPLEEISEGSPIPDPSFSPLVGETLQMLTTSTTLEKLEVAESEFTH
The settings on record: PIP5K1A; 1 μM; read-out: % control.

Molecules are shown by their SMILES.

T1 sequence (Q9Y6E0 whole entry): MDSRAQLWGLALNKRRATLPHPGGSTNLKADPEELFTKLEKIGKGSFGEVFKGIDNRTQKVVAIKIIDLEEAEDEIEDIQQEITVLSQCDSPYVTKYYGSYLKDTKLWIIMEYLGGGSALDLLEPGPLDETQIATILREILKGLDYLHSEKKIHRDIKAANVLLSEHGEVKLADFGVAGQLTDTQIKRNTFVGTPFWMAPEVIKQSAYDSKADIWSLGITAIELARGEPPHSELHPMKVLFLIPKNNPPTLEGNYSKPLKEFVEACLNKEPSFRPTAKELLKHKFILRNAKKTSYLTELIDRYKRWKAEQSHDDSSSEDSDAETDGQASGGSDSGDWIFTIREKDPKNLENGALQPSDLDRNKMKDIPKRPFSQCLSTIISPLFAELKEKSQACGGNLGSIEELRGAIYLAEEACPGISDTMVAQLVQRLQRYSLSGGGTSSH

`CNc1nc(Nc2ccc(S(=O)(=O)N3CCC(N4CCOCC4)CC3)cc2OC)nc2[nH]cc(Cl)c12` [Compound 12, 5-chloro-N2-(2-methoxy-4-((4-morpholinopiperidin-1-yl)sulfonyl)phenyl)-N4-methyl-7H-pyrrolo[2,3-d]pyrimidine-2,4-diamine]: the remaining binding at 1 µM at panel of 468 kinases [1] was 97%; at panel of 468 kinases [2] it was 73%; on panel of 468 kinases [3], 100%; on panel of 468 kinases [4], 54%; on panel of 468 kinases [5], 100%.
For `CNc1nc(Nc2ccc(C(=O)N3CCC(N4CCOCC4)CC3)c3c2OCO3)nc2[nH]cc(Cl)c12` [Compound 75, (7-((5-chloro-4-(methylamino)-7H-pyrrolo[2,3-d]pyrimidin-2-yl)amino)benzo[d][1,3]dioxol-4-yl)(4-morpholinopiperidin-1-yl)methanone], the remaining binding at 1 µM was 98% at panel of 468 kinases [1]; 41% on panel of 468 kinases [2]; 97% at panel of 468 kinases [3]; 65% at panel of 468 kinases [4]; 34% on panel of 468 kinases [5].
The matching figures for `CNc1nc(Nc2ccc(P3(=O)CCN(C4CCOCC4)CC3)cc2OC)nc2[nH]cc(Cl)c12` [Compound 77, 4-(4-((5-chloro-4-(methylamino)-7H-pyrrolo[2,3-d]pyrimidin-2-yl)amino)-3-methoxyphenyl)-1-(tetrahydro-2H-pyran-4-yl)-1,4-azaphosphinane 4-oxide]: 88%, 65%, 99%, 55% and 100%.

The record behind these values is patent publication US12479847B2 (DANA-FARBER CANCER INSTITUTE, INC., priority 2019, dated 2025).
